Results on 30 molecules are retold here after ChEMBL document CHEMBL1147436, “Synthesis of N,N'-disubstituted 3-aminobenzo[c] and [d]azepin-2-ones as potent and specific farnesyl transferase inhibitors” (Bioorg Med Chem Lett, 2004).

pIC50: −log10 of the molar value.

Assay [1] addresses T1, Protein farnesyltransferase (Homo sapiens, UniProt P49354+P49356). The experiment in a line: Inhibition of farnesyltransferase. It counts as protein-complex assay.
A short description of assay [2]: Inhibitory activity against v-H-Ras gene transfected cell line. It counts as functional.
Assay [3] addresses T1, Protein farnesyltransferase. As to the kind of experiment: Inhibition of Farnesyltransferase. The assay is classed as protein-complex assay.
Assay [4] can be described thus: Inhibition of geranylgeranyl transferase.
Assay [5] has as its system Mus musculus. The experiment in a line: Percent control tumor size in mouse xenograft assay (rat H-ras transformed fibroblasts) at 200 mg/kg peroral dose. It counts as functional. As to conditions: route oral.
The subject of assay [6] is Mus musculus. As to the kind of experiment: Percent control tumor size in mouse xenograft assay (rat H-ras transformed fibroblasts) at 100 mg/kg peroral dose. It counts as functional. As to conditions: route oral.

Take `N#Cc1ccc(Cn2cncc2CNC2Cc3ccccc3CN(c3cccc(Cl)c3)C2=O)cc1` (racemic): the pIC50 in assay [1] was 8.40; in assay [2], 7.80.
Consider `N#Cc1ccc(Cn2cncc2CNC2Cc3ccccc3CN(Cc3ccc(Cl)cc3Cl)C2=O)cc1` (centres undefined), for which the pIC50 in assay [1] and in assay [2] was 6.85 each time.
In the case of `N#Cc1ccc(Cn2cncc2CNC2Cc3ccccc3CN(Cc3cc(F)cc(F)c3)C2=O)cc1` (centres undefined), the pIC50 was 8.10 in assay [1] and 7.80 in assay [2].
As to `N#Cc1ccc(Cn2cncc2CNC2Cc3ccccc3CN(c3cccc([N+](=O)[O-])c3)C2=O)cc1` (racemic), the pIC50 in assay [1] was 7.89; in assay [2] it was 7.34.
For `N#Cc1ccc(Cn2cncc2CNC2Cc3ccccc3CN(c3cc(Cl)cc(Cl)c3)C2=O)cc1` (centres undefined), the pIC50 is 7.82 in assay [1] and 8.15 in assay [2].
Regarding `N#Cc1ccc(Cn2cncc2CN[C@H]2Cc3ccccc3CN(c3ccccc3)C2=O)cc1`, the pIC50 is 7.72 in assay [1] and 7.80 in assay [2].
With `N#Cc1ccc(Cn2cncc2CNC2C(=O)N(c3ccccc3)CCc3ccccc32)cc1` (centres undefined), the pIC50 in assay [1] is 7.27; in assay [2] it was 7.02.
On to `N#Cc1ccc(Cn2cncc2CNC2C(=O)N(c3cc(F)cc(F)c3)CCc3ccccc32)cc1` (centres undefined), for which the negative-log IC50 (pIC50) is 7.21 in assay [1] and 7.07 in assay [2].
The matching figures for `N#Cc1ccc(Cn2cncc2CNC2C(=O)N(Cc3ccccc3Cl)CCc3ccccc32)cc1` (centres undefined): 7.64 and 7.04.
Take `N#Cc1ccc(Cn2cncc2CNC2Cc3ccccc3CN(c3cc(F)cc(F)c3)C2=O)cc1` (centres undefined): the pIC50 in assay [1] was 8.00; in assay [2] it was 7.40.
The matching figures for `N#Cc1ccc(Cn2cncc2CNC2Cc3ccccc3CN(c3ccccc3)C2=O)cc1` (racemic): 7.59 and 7.44.
For `N#Cc1ccc(Cn2cncc2CNC2Cc3ccccc3CN(c3cccc(Br)c3)C2=O)cc1` (racemic), the pIC50 in assay [1] is 7.82; in assay [2], 8.30.
The matching figures for `N#Cc1ccc(Cn2cncc2CNC2C(=O)N(Cc3cccc(F)c3)CCc3ccccc32)cc1` (centres undefined): 7.11 and 7.17.
The matching figures for `N#Cc1ccc(Cn2cncc2CNC2Cc3ccccc3CN(Cc3ccccc3)C2=O)cc1` (centres undefined): 7.77 and 8.22.
In the case of `N#Cc1ccc(Cn2cncc2CNC2Cc3ccccc3CN(Cc3ccccc3Cl)C2=O)cc1` (centres undefined), the pIC50 was 8.00 in assay [1] and 8.22 in assay [2].
In the same order, the values of `N#Cc1ccc(Cn2cncc2CNC2Cc3ccccc3CN(c3cccc(F)c3)C2=O)cc1` (racemic) are 8.05 and 7.41.
With `N#Cc1ccc(Cn2cncc2CNC2Cc3ccccc3CN(Cc3ccc(F)cc3F)C2=O)cc1` (centres undefined), the pIC50 in assay [1] was 7.26; in assay [2] it was 6.94.
Regarding `Cc1ccccc1CN1CCc2ccccc2C(NCc2cncn2Cc2ccc(C#N)cc2)C1=O` (centres undefined), the pIC50 was 7.27 in assay [1] and 7.02 in assay [2].
In the same order, the values of `N#Cc1ccc(Cn2cncc2CNC2C(=O)N(Cc3cccc(Cl)c3)CCc3ccccc32)cc1` (centres undefined) are 7.64 and 6.74.
As to `N#Cc1ccc(Cn2cncc2CNC2C(=O)N(c3cc(Cl)cc(Cl)c3)CCc3ccccc32)cc1` (centres undefined), the pIC50 in assay [3] was 7.49; in assay [2] it was 7.72.
`N#Cc1ccc(Cn2cncc2CNC2Cc3ccccc3CN(Cc3cc(F)cc(F)c3F)C2=O)cc1` (centres undefined): the pIC50 in assay [1] was 7.74; in assay [2], 7.33.
In the same order, the values of `N#Cc1ccc(Cn2cncc2CNC2C(=O)N(Cc3cccc(Br)c3)CCc3ccccc32)cc1` (centres undefined) are 7.66 and 7.22.
Turning to `N#Cc1ccc(Cn2cncc2CN[C@H]2CCCCN(Cc3ccccc3)C2=O)cc1`, the values for the pIC50 in assay [1] and in assay [2] were 8.10 and 8.00, respectively.
In the same order, the values of `N#Cc1ccc(Cn2cncc2CNC2Cc3ccccc3CN(CC3CCCCC3)C2=O)cc1` (centres undefined) are 7.33 and 7.59.
For `N#Cc1ccc(Cn2cncc2CNC2C(=O)N(Cc3cc(F)cc(F)c3)CCc3ccccc32)cc1` (centres undefined), the pIC50 in assay [1] was 7.59; in assay [2], 6.42.
In the same order, the values of `COc1cccc(N2Cc3ccccc3CC(NCc3cncn3Cc3ccc(C#N)cc3)C2=O)c1` (racemic) are 8.22 and 7.82.
As for `N#Cc1ccc(Cn2cncc2CNC2Cc3ccccc3CN(Cc3cccc(Cl)c3)C2=O)cc1` (centres undefined), the pIC50 in assay [1] was 8.22; in assay [2], 8.40.
Take `N#Cc1ccc(Cn2cncc2CNC2C(=O)N(c3cccc(Cl)c3)CCc3ccccc32)cc1` (racemic): the pIC50 was 5.11 in assay [4], 7.72 in assay [1] and 7.41 in assay [2]. Further, the Control is 43% in the assay on Mus musculus [5] and 70% with Mus musculus [6].
The matching figures for `Cc1ccccc1CN1Cc2ccccc2CC(NCc2cncn2Cc2ccc(C#N)cc2)C1=O` (centres undefined): 5.15, 8.52, 8.40, 57% and 76%.
On to `N#Cc1ccc(Cn2cncc2CN[C@H]2Cc3ccccc3CN(c3cccc(Cl)c3)C2=O)cc1`, for which the pIC50 is 4.60 in assay [4], 9.00 in assay [1] and 8.15 in assay [2]. The Control in the assay with Mus musculus [5] was 35%; in the assay on Mus musculus [6], 60%.
